# Experimental data from PMC11881016, “Deep‐Learning‐Based Approaches for Rational Design of Stapled Peptides With High Antimicrobial Activity and Stability” (Microbial Biotechnology, 2025).
# Read-outs that look alike come from different tables or passages of the source. *1 amine or outer side, *2 acyl side, *3 side chain or, on linkers, in order; H or OH if unused. Where a SMILES comes first, the peptide text is derived from it. Bridges are numbered along the chain shown (N, C = ends). Where no end group is shown, it is not given here. [ ]: non-standard residue; d: D form. X1 = O=C([C@H](CCCCNCC=[*:3])N[*:1])[*:2]; Octanediyl(1,8) = C(CCCC[*:2])CCC[*:1]; X2 = C(CCCCC[*:2])CCCC[*:1]
# What was measured:
# [1] = tested on: Escherichia coli (E. coli, ATCC25922); assay type: cell-based
# Method: (§1) Escherichia coli ( E. coli , ATCC25922), Klebsiella pneumoniae ( K. pneumoniae , ATCC10031), Staphylococcus aureus ( S. aureus , ATCC6538P), Pseudomonas aeruginosa ( P. aeruginosa , ATCC27853) and methicillin‐resistant Staphylococcus aureus (MRSA) were used to evaluate the antimicrobial activity of the peptides and were purchased from BeNa Culture Collection.
# (§2) The MICs of the peptides in vitro were determined using the broth microdilution method with minor modifications (Wiegand et al. [2008]). Peptides were incubated with bacteria (about 5 × 10^5 CFU/mL), and PBS was used as the negative control. After 18–24 h of incubation at 37°C, the bacteria were checked for growth by recording the values at OD600, with three replicates in each group.
# [2] = tested on: Klebsiella pneumoniae (K. pneumoniae, ATCC10031); assay type: cell-based; conditions: ATCC10031
# Method: as §1, §2
# [3] = tested on: Pseudomonas aeruginosa (P. aeruginosa, ATCC27853); assay type: cell-based
# Method: as §1, §2
# [4] = tested on: Staphylococcus aureus (S. aureus, ATCC6538P); assay type: cell-based; conditions: ATCC6538
# Method: as §1, §2
# [5] = Serum stability assay (residual antimicrobial activity against E. coli); assay type: in vitro ADME, bovine
# Method: The serum stability assay was conducted as described by Li et al. ([2020]) with minor modifications. In brief, each peptide was dissolved in PBS solution containing 25% foetal bovine serum (FBS) at a final concentration of 2048 μg/mL and diluted after incubation for 8 h. E. coli was used as the bacterium for the stability assay, and the bacterial inhibition experiment was performed according to the bacterial inhibitory activity assay. Residual activity was calculated using the following formula: Residual activity=MICbefore/MICafter
# • where MICbefore represents the MICs against E. coli before incubation, and MICafter represents the MICs against E. coli after incubation for 8 h.
# any bacteria = assay: Wet experiment result (antimicrobial activity of the synthesised peptides, positive/negative); assay type: cell-based; conditions: experiment data set (Supplement S12)
# Description: Supplement MBT2-18-e70121-s002.doc, table 9 | column: Wet Exp. Result
# [6] = tested on: methicillin‐resistant Staphylococcus aureus (MRSA); assay type: cell-based; conditions: methicillin‐resistant
# Method: as §1, §2
Molecule,MIC E. coli [1] [µg/mL],MIC K. pneumoniae [2] [µg/mL],MIC P. aeruginosa [3] [µg/mL],MIC S. aureus [4] [µg/mL],residual antimicrobial activity after incubation in 25% serum (in words) [5],decrease of residual antimicrobial activity after incubation in 25% serum [5],Wet Exp. Result (any bacteria),MIC MRSA [6] [µg/mL],"residual antimicrobial activity after incubation in 25% serum (in words) ([5]; 25% foetal bovine serum, 8 h, MIC against E. coli, Figure 7L)"
CC[C@H](C)[C@H](NC(=O)CN)C(=O)NCC(=O)N[C@@H](CCCCN)C(=O)N[C@@H](Cc1ccccc1)C(=O)N[C@@H](CC(C)C)C(=O)N[C@@H](Cc1c[nH]cn1)C(=O)N[C@@H](CO)C(=O)N[C@@H](C)C(=O)N[C@@H](CCCCN)C(=O)N[C@@H](CCCCN)C(=O)N[C@@H](Cc1ccccc1)C(=O)NCC(=O)N[C@@H](CCCCN)C(=O)N[C@@H](C)C(=O)N[C@@H](Cc1ccccc1)C(=O)N[C@H](C(=O)N[C@H]1CSSC[C@@H](C(=O)N[C@@H](CO)C(=O)O)NC(=O)[C@H](CC(C)C)NC(=O)[C@H]([C@@H](C)CC)NC(=O)[C@H](CCC(=O)O)NC1=O)C(C)C [Mag2(i + 4)17Dc] (H-GIGKFLHSAKKFGKAFVCEILCS-OH; disulfide 18-22),16,16,64,8,significantly decreased,,,,
"CC[C@H](C)[C@H](NC(=O)[C@H](CCC(=O)O)NC(=O)CNC(=O)[C@@H](NC(=O)[C@H](Cc1ccccc1)NC(=O)[C@H](C)NC(=O)[C@H](CCCCN)NC(=O)CNC(=O)[C@H](Cc1ccccc1)NC(=O)[C@H](CCCCN)NC(=O)[C@H](CCCCN)NC(=O)[C@H](C)NC(=O)[C@H](CO)NC(=O)[C@H](Cc1c[nH]cn1)NC(=O)[C@H](CC(C)C)NC(=O)[C@@H]1CSCCCCCCCCSC[C@H](N)C(=O)N[C@@H]([C@@H](C)CC)C(=O)NCC(=O)N[C@@H](CCCCN)C(=O)N1)C(C)C)C(=O)N[C@@H](CC(C)C)C(=O)N[C@@H](CC(N)=O)C(=O)N[C@@H](CO)C(=O)O [Mag(i + 4)0St] (H-CIGKCLHSAKKFGKAFVGEILNS-OH; linker 1-5 via Octanediyl(1,8); N-terminus and C-terminus assumed)",4,16,32,32,,approximately 50%,Positive,,
CC[C@H](C)[C@H](NC(=O)CN)C(=O)NCC(=O)N[C@@H](CCCCN)C(=O)N[C@@H](Cc1ccccc1)C(=O)N[C@@H](CC(C)C)C(=O)N[C@@H](Cc1c[nH]cn1)C(=O)N[C@@H](CO)C(=O)N[C@@H](C)C(=O)N[C@@H](CCCCN)C(=O)N[C@@H](CCCCN)C(=O)N[C@H]1CSCCCCCCCCCCSC[C@@H](C(=O)N[C@H](C(=O)N[C@@H](CC(C)C)C(=O)N[C@@H](CC(N)=O)C(=O)N[C@@H](CO)C(=O)O)[C@@H](C)CC)NC(=O)CNC(=O)[C@H](C(C)C)NC(=O)[C@H](Cc2ccccc2)NC(=O)[C@H](C)NC(=O)[C@H](CCCCN)NC(=O)CNC1=O [Mag(i + 7)11St] (H-GIGKFLHSAKKCGKAFVGCILNS-OH; linker 12-19 via X2),16,8,32,2,remained unchanged,,Positive,,
CC[C@H](C)[C@H](NC(=O)[C@H](CCCNC(=N)N)NC(=O)[C@H](CCCCN)NC(=O)[C@@H](N)Cc1c[nH]c2ccccc12)C(=O)N[C@@H](C)C(=O)N[C@@H](CCCNC(=N)N)C(=O)N[C@H]1CCCCNC/C=C/CNCCCC[C@@H](C(=O)N[C@@H](CC(C)C)C(=O)NCC(=O)N[C@@H](CCCNC(=N)N)C(=O)N[C@@H](C)C(=O)N[C@@H](CCCCN)C(=O)N[C@@H](CC(C)C)C(=O)N[C@@H](Cc2ccccc2)C(=O)O)NC(=O)[C@H](CCCNC(=N)N)NC(=O)[C@H](CCCCN)NC(=O)[C@H](CC(C)C)NC1=O [VAE‐P3‐5‐St] (H-WKRIAR[X1]LKR[X1]LGRAKLF-OH; staple (E) 7-11),16,4,32,4,,,Positive,16,
"GIGKFLHSAKKFGKAFVGEIMNS [Mag2, magainin II, reference compound]",,,,,,,,,significantly decreased
